The structures appear in SMILES notation.

What all share (type): functional
In experiment [1] the test system is MDA-MB-435. As to the kind of experiment: Cytotoxicity against human MDA-MB-435 cells assessed as cell growth at 10^-5 M after 48 hrs by SRB assay. As to conditions: MDA-MB-435, 48 h, read-out: Activity.
For experiment [2], the system named is MDA-MB-435. Nature of the experiment: Cytotoxicity against human MDA-MB-435 cells assessed as cell growth at 10^-8 M after 48 hrs by SRB assay. As to conditions: MDA-MB-435, 48 h, read-out: Activity.
The test system of experiment [3] is MCF7. As to the kind of experiment: Cytotoxicity against human MCF7 cells assessed as cell growth at 10^-5 M after 48 hrs by SRB assay. As to conditions: MCF7, 48 h, read-out: Activity.
The test system of experiment [4] is Malme-3M. As to the kind of experiment: Cytotoxicity against human MALME-3M cells assessed as cell growth at 10^-4 M after 48 hrs by SRB assay. As to conditions: read-out: Activity.
The test system of experiment [5] is EKVX. As to the kind of experiment: Cytotoxicity against human EKVX cells assessed as cell growth at 10^-6 M after 48 hrs by SRB assay. As to conditions: read-out: Activity.
Experiment [6] can be described thus: Cytotoxicity against human BT549 cells assessed as cell growth at 10^-6 M after 48 hrs by SRB assay. As to conditions: BT-549, 48 h, read-out: Activity.
The subject of experiment [7] is A498. As to the kind of experiment: Cytotoxicity against human A498 cells assessed as cell growth at 10^-6 M after 48 hrs by SRB assay. As to conditions: A498, 48 h, read-out: Activity.
Experiment [8] concerns HT-29. Nature of the experiment: Cytotoxicity against human HT-29 cells assessed as cell growth at 10^-4 M after 48 hrs by SRB assay. As to conditions: HT-29, 48 h, read-out: Activity.
Experiment [9] relates to Malme-3M. Nature of the experiment: Cytotoxicity against human MALME-3M cells assessed as cell growth at 10^-7 M after 48 hrs by SRB assay. As to conditions: read-out: Activity.
Experiment [10] is described as follows: Cytotoxicity against human OVCAR3 cells assessed as cell growth at 10^-5 M after 48 hrs by SRB assay. As to conditions: OVCAR-3, 48 h, read-out: Activity.
Experiment [11] is described as follows: Cytotoxicity against human OVCAR8 cells assessed as cell growth at 10^-4 M after 48 hrs by SRB assay. As to conditions: OVCAR-8, 48 h, read-out: Activity.
The subject of experiment [12] is MDA-MB-435. As to the kind of experiment: Cytotoxicity against human MDA-MB-435 cells assessed as cell growth at 10^-4 M after 48 hrs by SRB assay. As to conditions: MDA-MB-435, 48 h, read-out: Activity.
Experiment [13] concerns T47D. As to the kind of experiment: Cytotoxicity against human T47D cells assessed as cell growth at 10^-7 M after 48 hrs by SRB assay. As to conditions: read-out: Activity.
A short description of experiment [14]: Cytotoxicity against human SF539 cells assessed as cell growth at 10^-8 M after 48 hrs by SRB assay. As to conditions: SF-539, 48 h, read-out: Activity.
The nature of experiment [15]: Cytotoxicity against human SW620 cells assessed as cell growth at 5 nM after 48 hrs by SRB assay. As to conditions: SW-620, 48 h, read-out: Activity.
Experiment [16] has as its system SK-MEL-28. Nature of the experiment: Cytotoxicity against human SK-MEL-28 cells assessed as cell growth at 0.5 uM after 48 hrs by SRB assay. As to conditions: SK-MEL-28, 48 h, read-out: Activity.
Experiment [17] has as its system SK-MEL-28. Nature of the experiment: Cytotoxicity against human SK-MEL-28 cells assessed as cell growth at 5 uM after 48 hrs by SRB assay. As to conditions: SK-MEL-28, 48 h, read-out: Activity.
The subject of experiment [18] is U-251. Nature of the experiment: Cytotoxicity against human U251 cells assessed as cell growth at 5 uM after 48 hrs by SRB assay. As to conditions: U-251, 48 h, read-out: Activity.
Experiment [19] in a line: Cytotoxicity against human RXF393 cells assessed as cell growth at 5 nM after 48 hrs by SRB assay. As to conditions: RXF 393, 48 h, read-out: Activity.
A short description of experiment [20]: Cytotoxicity against human HOP62 cells assessed as cell growth at 5 nM after 48 hrs by SRB assay. As to conditions: HOP-62, 48 h, read-out: Activity.
The subject of experiment [21] is SK-MEL-5. As to the kind of experiment: Cytotoxicity against human SK-MEL-5 cells assessed as cell growth at 50 nM after 48 hrs by SRB assay. As to conditions: SK-MEL-5, 48 h, read-out: Activity.
Experiment [22] deals with MDA-MB-231. As to the kind of experiment: Cytotoxicity against human MDA-MB-231 cells assessed as cell growth at 0.5 uM after 48 hrs by SRB assay. As to conditions: MDA-MB-231, 48 h, read-out: Activity.
The test system of experiment [23] is T47D. As to the kind of experiment: Cytotoxicity against human T47D cells assessed as cell growth at 5 nM after 48 hrs by SRB assay. As to conditions: read-out: Activity.
In experiment [24] the test system is MCF7. Nature of the experiment: Cytotoxicity against human MCF7 cells assessed as cell growth at 50 nM after 48 hrs by SRB assay. As to conditions: MCF7, 48 h, read-out: Activity.
Experiment [25] relates to SK-MEL-28. Nature of the experiment: Cytotoxicity against human SK-MEL-28 cells assessed as cell growth at 5 nM after 48 hrs by SRB assay. As to conditions: SK-MEL-28, 48 h, read-out: Activity.
Experiment [26] can be described thus: Cytotoxicity against human HOP62 cells assessed as cell growth at 5 uM after 48 hrs by SRB assay. As to conditions: HOP-62, 48 h, read-out: Activity.
For experiment [27], the system named is NCI-H226. Nature of the experiment: Cytotoxicity against human NCI-H226 cells assessed as cell growth at 5 nM after 48 hrs by SRB assay. As to conditions: NCI-H226, 48 h, read-out: Activity.
Experiment [28] relates to SK-MEL-2. Nature of the experiment: Cytotoxicity against human SK-MEL-2 cells assessed as cell growth at 5 uM after 48 hrs by SRB assay. As to conditions: SK-MEL-2, 48 h, read-out: Activity.
A short description of experiment [29]: Cytotoxicity against human PC3 cells assessed as cell growth at 50 nM after 48 hrs by SRB assay. As to conditions: PC-3, 48 h, read-out: Activity.
Experiment [30] in a line: Cytotoxicity against human DU145 cells assessed as cell growth at 0.5 uM after 48 hrs by SRB assay. As to conditions: DU-145, 48 h, read-out: Activity.
Experiment [31] concerns MDA-MB-435. As to the kind of experiment: Cytotoxicity against human MDA-MB-435 cells assessed as cell growth at 50 nM after 48 hrs by SRB assay. As to conditions: MDA-MB-435, 48 h, read-out: Activity.
The nature of experiment [32]: Cytotoxicity against human HL-60(TB) cells assessed as cell growth at 50 uM after 48 hrs by SRB assay. As to conditions: HL-60, 48 h, read-out: Activity.
Experiment [33] concerns M14. Nature of the experiment: Cytotoxicity against human M14 cells assessed as cell growth at 0.5 uM after 48 hrs by SRB assay. As to conditions: M14, 48 h, read-out: Activity.
The subject of experiment [34] is A549. As to the kind of experiment: Cytotoxicity against human A549 cells assessed as cell growth at 50 nM after 48 hrs by SRB assay. As to conditions: A549, 48 h, read-out: Activity.
Experiment [35] in a line: Cytotoxicity against human RXF393 cells assessed as cell growth at 0.5 uM after 48 hrs by SRB assay. As to conditions: RXF 393, 48 h, read-out: Activity.
Experiment [36] is described as follows: Cytotoxicity against human OVCAR8 cells assessed as cell growth at 50 uM after 48 hrs by SRB assay. As to conditions: OVCAR-8, 48 h, read-out: Activity.
A short description of experiment [37]: Cytotoxicity against human SF539 cells assessed as cell growth at 0.5 uM after 48 hrs by SRB assay. As to conditions: SF-539, 48 h, read-out: Activity.
The subject of experiment [38] is MDA-MB-435. As to the kind of experiment: Cytotoxicity against human MDA-MB-435 cells assessed as cell growth at 0.5 uM after 48 hrs by SRB assay. As to conditions: MDA-MB-435, 48 h, read-out: Activity.
Experiment [39] deals with KM12. As to the kind of experiment: Cytotoxicity against human KM12 cells assessed as cell growth at 50 nM after 48 hrs by SRB assay. As to conditions: KM12, 48 h, read-out: Activity.
Experiment [40] is described as follows: Cytotoxicity against human RPMI8226 cells assessed as cell growth at 50 nM after 48 hrs by SRB assay. As to conditions: RPMI-8226, 48 h, read-out: Activity.
The nature of experiment [41]: Cytotoxicity against human BT549 cells assessed as cell growth at 50 nM after 48 hrs by SRB assay. As to conditions: BT-549, 48 h, read-out: Activity.
The subject of experiment [42] is T47D. Nature of the experiment: Cytotoxicity against human T47D cells assessed as cell growth at 50 uM after 48 hrs by SRB assay. As to conditions: read-out: Activity.

Turning to `C/C(=C(/c1ccc(O)cc1)c1ccc(OCCN2CCCC2)cc1)c1ccccc1`, the results for the growth at 10 µM in experiment [1], in experiment [3] and in experiment [10] were -48%, -47% and 35%, respectively. Besides, the growth at 0.01 µM in experiment [2] is 93%; in [14], 89%. The growth at 100 µM in experiment [4] is -91%; in [8], -91%; in experiment [11], -61%; in experiment [12] it was -100%. Also, the growth at 1 µM was determined as 78% in experiment [5], 92% in experiment [6] and 66% in experiment [7]. The growth at 0.1 µM was determined as 91% in experiment [9] and 63% in [13].
As to `CCCCCCCCCC(=O)Oc1ccc(/C(=C(/C)c2ccccc2)c2ccc(OCCN3CCCC3)cc2)cc1`, the growth at 0.005 µM in experiment [15] was determined as 96%; in experiment [19], 101%; in [20] it was 103%; in experiment [23], 69%; in experiment [25], 104%; in [27], 93%. In addition, the growth at 0.5 µM in experiment [16] turned out to be 19%; in experiment [22], 96%; in [30], 81%; in [33] it was 42%; in experiment [35], 61%; in [37], 72%. Moreover, in [38], the growth at 0.5 µM was 67%. The growth at 5 µM was determined as 89% in [17], 86% in experiment [18], 91% in experiment [26] and 100% in experiment [28]. Also, the growth at 0.05 µM in experiment [21] is 102%; in experiment [24] it was 41%; in [29], 97%; in [31] it was 92%; in experiment [34], 102%; in experiment [39], 98%. The growth at 0.05 µM in experiment [40] worked out at 100%; in [41], 92%. Also, the growth at 50 µM was -70% in experiment [32], -58% in [36] and -61% in experiment [42].
